# Experimental data published in patent publication US12686690B2, “Macrocyclic urea orexin receptor agonists” (Merck Sharp & Dohme LLC, priority 2020, dated 2026).
# Target: T1, hOX2R (Homo sapiens, UniProt O43614)
# T1 construct: expressed in transfected cells; host or cells: CHO cells (G418 selection)
# T1 sequence (O43614 1-444): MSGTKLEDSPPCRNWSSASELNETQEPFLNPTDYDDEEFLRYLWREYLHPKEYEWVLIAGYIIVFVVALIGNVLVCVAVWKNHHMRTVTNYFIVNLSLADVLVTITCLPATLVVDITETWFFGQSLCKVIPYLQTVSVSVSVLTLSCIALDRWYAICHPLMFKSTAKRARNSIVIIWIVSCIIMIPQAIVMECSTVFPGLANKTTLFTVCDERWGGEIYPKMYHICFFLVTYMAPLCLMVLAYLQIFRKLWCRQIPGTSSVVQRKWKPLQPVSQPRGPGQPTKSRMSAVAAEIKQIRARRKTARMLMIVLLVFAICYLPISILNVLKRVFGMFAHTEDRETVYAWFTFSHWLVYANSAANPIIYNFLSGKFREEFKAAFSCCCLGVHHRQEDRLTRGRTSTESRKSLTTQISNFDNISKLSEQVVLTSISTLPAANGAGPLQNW
# Assay: hOX2R IPone assay (orexin receptor agonism)
# Type: cell-based
# Details: IPone readout; for hOX2R_Ipone max %act: maximal activation; for EC50: orexin receptor agonist, read-out: hOX2R_IPone EC50
SMILES,hOX2R_Ipone max %act,EC50
"CCN1C(=O)N[C@@H](CCC(F)(F)F)CCCCCOc2cc(cc3cccnc23)-c2cc(ncc2OC)[C@H]1C [Example 157, (3R,7R)-4-ethyl-25-methoxy-3-methyl-7-(3,3,3-trifluoropropyl)-13-oxa-4,6-diaza-1(6,8)-quinolina-2(4,2)-pyridinacyclotridecaphan-5-one]",99.72%,2.68 nM
"CCN1C(=O)NCc2nc(cs2)CCOc2nc(cn3ccnc23)-c2cccc(c2)[C@H]1C [Example 22, (R,27E,6^2Z)-10-ethyl-11-methyl-3-oxa-8,10-diaza-6(4,2)-thiazola-2(6,8)-imidazo[1,2-a]pyrazina-1(1,3)-benzenacycloundecaphan-9-one]",94.8%,82.6 nM
"CCN1C(=O)NC(CC(F)F)CCCCCOc2nc(cn3ccnc23)-c2cc(ncc2OC)[C@H]1C (stereo partly drawn) [Example 186, (3R,E)-7-(2,2-difluoroethyl)-4-ethyl-25-methoxy-3-methyl-13-oxa-4,6-diaza-1(6,8)-imidazo[1,2-a]pyrazina-2(4,2)-pyridinacyclotridecaphan-5-one]",102.3%,1.02 nM
"CCN1C(=O)NCCNCCCOc2cn3ccnc3c(n2)-c2cccc(c2)[C@H]1C [Example 10, (R,E)-4-ethyl-3-methyl-13-oxa-4,6,9-triaza-1(6,8)-imidazo[1,2-a]pyrazina-2(1,3)-benzenacyclotridecaphan-5-one]",97.61%,950 nM
"CCN1C(=O)NCC(C(F)(F)F)N(C)CCOc2nc(cn3ccnc23)-c2cccc(c2)[C@H]1C (single isomer, unassigned) [Example 25B]",97.81%,173 nM
"CCN1Cc2cc(c(OC)cn2)-c2cn3ccnc3c(n2)OCCCC[C@H](CCC(F)(F)F)NC1=O [Example 45, (16R)-13-ethyl-8-methoxy-16-(3,3,3-trifluoropropyl)-12,13,15,16,17,18,19,20-octahydro-14H-6,22-(azeno)-11,7-(metheno)imidazo[2,1-c][1,4,10,13,15]oxatetra-azacycloicosin-14-one]",100.1%,14.1 nM
"CCN1C(=O)N[C@@H](CCC(C)(F)F)CCCCCOc2nc(cn3ncnc23)-c2cc(cnc2C)[C@H]1C [Example 146, (3R,7R,E)-7-(3,3-difluorobutyl)-4-ethyl-22,3-dimethyl-13-oxa-4,6-diaza-1(6,8)-[1,2,4]triazolo[1,5-a]pyrazina-2(3,5)-pyridinacyclotridecaphan-5-one]",100.8%,14.7 nM
"CCN1C(=O)N[C@@H](CCC(F)F)CCCCCOc2nc(cn3ncnc23)-c2cc(ncc2Cl)[C@H]1C [Example 128, (3R,7R,E)-25-chloro-7-(3,3-difluoropropyl)-4-ethyl-3-methyl-13-oxa-4,6-diaza-1(6,8)-[1,2,4]triazolo[1,5-a]pyrazina-2(4,2)-pyridinacyclotridecaphan-5-one]",102.9%,11.2 nM
"CCN1C(=O)N[C@@H](CCC(F)(F)F)CCCCOc2nc(cn3ncnc23)-c2cc(ncc2OC)C1C(F)(F)F (single isomer, unassigned) [Example 34A]",99.9%,541 nM
"CCN1C(=O)N[C@@H](CCC(F)(F)F)CCCCOc2nc(cn3ccnc23)-c2cccc(c2)[C@H]1C [Example 32, (3R,7R,E)-4-ethyl-3-methyl-7-(3,3,3-trifluoropropyl)-12-oxa-4,6-diaza-1(6,8)-imidazo[1,2-a]pyrazina-2(1,3)-benzenacyclododecaphan-5-one]",101%,2.8 nM
"CCN1C(=O)NC(CCC(C)(F)F)CCCCCOc2nc(nn3ccnc23)-c2cc(ncc2OC)[C@H]1C (stereo partly drawn) [Example 200, (3R,E)-7-(3,3-difluorobutyl)-4-ethyl-25-methoxy-3-methyl-13-oxa-4,6-diaza-1(2,4)-imidazo[2,1-f][1,2,4]triazina-2(4,2)-pyridinacyclo-tridecaphan-5-one]",99.5%,0.53 nM
"CCN1C(=O)N[C@@H](CCC(C)(F)F)CCCCCOc2nc(cn3ccnc23)-c2ccnc(c2)[C@H]1C [Example 84, (12R,16R)-16-(3,3-difluorobutyl)-13-ethyl-12-methyl-12, 13,16,17,18,19,20,21-octahydro-6,23-(azeno)-11,7-(metheno)imidazo[2,1-c][1,4,10,13,15] oxatetraazacycloheni-cosin-14(15H)-one]",99.1%,1.5 nM
"CCN1C(=O)N[C@@H](C)CCCC(F)(F)COc2nc(cn3ccnc23)-c2cc(ncc2OC)[C@H]1C [Example 221, (3R,7S,E)-4-ethyl-11,11-difluoro-25-methoxy-3,7-dimethyl-13-oxa-4,6-diaza-1(6,8)-imidazo[1,2-a]pyrazina-2(4,2)-pyridinacyclotridecaphan-5-one]",90.75%,408 nM
"CCN1C(=O)NC(CCC(F)F)CCCCCOc2cc(nn3ccnc23)-c2cc(ncc2F)[C@H]1C (stereo partly drawn) [Example 204, (3R,E)-7-(3,3-difluoropropyl)-4-ethyl-25-fluoro-3-methyl-13-oxa-4,6-diaza-1(6,8)-imidazo[1,2-b]pyridazina-2(4,2)-pyridina-cyclotridecaphan-5-one]",100.5%,2.11 nM
"C[C@@H]1c2cc(c(F)cn2)-c2nc(c3nccn3n2)OCCCCCC(CCC(F)F)NC(=O)N1C1CC1 (stereo partly drawn) [Example 205, (3R,E)-4-cyclopropyl-7-(3,3-difluoropropyl)-25-fluoro-3-methyl-13-oxa-4,6-diaza-1(2,4)-imidazo[2,1-f] [1,2,4] triazina-2(4,2)-pyridinacyclo-tridecaphan-5-one]",104.8%,2.39 nM
"CCN1C(=O)NC(CCC(F)(F)F)COCCCOc2nc(cn3ccnc23)-c2cc(ncc2OC)[C@H]1C (single isomer, unassigned) [Example 21A]",100.4%,19.6 nM
"CCN1C(=O)NC(C(C)OC)CCCCCOc2nc(cn3ccnc23)-c2cc(ncc2OC)[C@H]1C (stereo partly drawn) [Example 191, (3R,E)-4-ethyl-25-methoxy-7-(1-methoxyethyl)-3-methyl-13-oxa-4,6-diaza-1(6,8)-imidazo[1,2-a]pyrazina-2(4,2)-pyridinacyclotridecaphan-5-one]",102.3%,1.73 nM
"CCN1C(=O)N[C@@H](CCC(F)(F)F)CCCCCOc2cc(cn3ccnc23)-c2nc(ccc2OC)[C@H]1C [Example 50, (3R,7R,E)-4-ethyl-23-methoxy-3-methyl-7-(3,3,3-trifluoropropyl)-13-oxa-4,6-diaza-1(6,8)-imidazo[1,2-a]pyridina-2(2,6)-pyridinacyclotridecaphan-5-one]",98.7%,0.8 nM

# More lines, now with the values ahead:
hOX2R_Ipone max %act,EC50,SMILES
99.9%,4.6 nM,"CCN1C(=O)N[C@@H](CCC(F)(F)F)CCCCCOc2nc(cn3ccnc23)-c2cc(nc(C)n2)[C@H]1C [Example 119B, (12R,16R)-13-ethyl-9,12-dimethyl-16-(3,3,3-trifluoropropyl)-12,13,16,17,18,19,20,21-octahydro-6,23-(azeno)-11,7-(metheno)imidazo[2,1-c][1,4,8,10,13,15]oxapentaazacyclohenicosin-14(15H)-one]"
100.1%,2.4 nM,"CCN1C(=O)N[C@@H](CCC(F)(F)F)CCCCCOc2nc(cn3ccnc23)-c2cc(C)nc(c2)[C@H]1C [Example 107B, (12R,16R)-13-ethyl-9,12-dimethyl-16-(3,3,3-trifluoropropyl)-12,13,16,17,18,19,20, 21-octahydro-6,23-(azeno)-11,7-(metheno)imidazo[2,1-c][1,4,10,13,15] oxatetraazacycloheni-cosin-14(15H)-one]"
100.5%,2.9 nM,"CCN1C(=O)N[C@@H](CCC(F)(F)F)CCCCCOc2cc(cn3ccnc23)-c2cc(ncn2)C1C (single isomer, unassigned) [Example 96B]"
97.5%,1060 nM,"CCN1C(=O)N[C@@H](C(F)(F)F)CCCCOc2nc(cn3ccnc23)-c2cc(ncc2OC)C1C(F)(F)F (single isomer, unassigned) [Example 39B]"
99.7%,6.6 nM,"CCN1C(=O)NC(CC2CC(F)(F)C2)CCCCCOc2nc(cn3ccnc23)-c2cc(ncc2OC)[C@H]1C (single isomer, unassigned) [Example 69A]"
100%,61.6 nM,"CCN1C(=O)N[C@@H](CCC(F)(F)F)CCCCCOc2nc(cn3ccnc23)-c2nc(co2)C1C (single isomer, unassigned) [Example 105B]"
98.9%,23.4 nM,"CCN1C(=O)NC(CCC(F)(F)F)C(C)/C=C\COc2nc(cn3ccnc23)-c2cccc(c2)[C@H]1C (single isomer, unassigned) [Example 41C]"
101.7%,32 nM,"CCN1C(=O)NC(CCOC)CCCCCOc2nc(cn3ccnc23)-c2cc(ncc2OC)[C@H]1C (single isomer, unassigned) [Example 56A]"
99.5%,5.6 nM,"CCN1C(=O)NC(CCC(C)F)CCCCCOc2nc(cn3ccnc23)-c2cc(ncc2OC)[C@H]1C (single isomer, unassigned) [Example 72A]"
